Experimental data taken from ChEMBL document CHEMBL1130232, “Synthesis and biological evaluation of 4-(hydroxyalkyl)estradiols and related compounds” (J Med Chem, 1997).

Columns and labels:
Conditions in all cases: mcf7
[1] = target: T1, Estrogen receptor (Homo sapiens, UniProt Q92731+P03372); test: Affinity for estrogen receptor of human MCF-7 cells; type: cell-based
[2] = target: T1, Estrogen receptor; test: Induction of pS2 Gene expression in human MCF-7 cells; type: functional, cell-based
[3] = target: T1, Estrogen receptor; test: Affinity for estrogen receptor of human MCF-7 cells at 10e-5 M; type: cell-based

SMILES	EC50 [1] [nM]	EC50 [2] [nM]	EC50 [3] [nM]
C[C@]12CC[C@@H]3c4ccc(O)c(O)c4CC[C@H]3[C@@H]1CC[C@@H]2O	506	65.4	–
C[C@]12CC[C@@H]3c4ccc(O)c(CCN)c4CC[C@H]3[C@@H]1CC[C@@H]2O	–	–	2500
C[C@]12CC[C@@H]3c4ccc(O)c(CCCO)c4CC[C@H]3[C@@H]1CC[C@@H]2O	3320	2950	–

Other lines, results leading:

EC50 [1] [nM]	EC50 [2] [nM]	EC50 [3] [nM]	SMILES
620	148	–	C[C@]12CC[C@@H]3c4ccc(O)c(CCO)c4CC[C@H]3[C@@H]1CC[C@@H]2O
364	11.7	–	C[C@]12CC[C@@H]3c4ccc(O)c(CO)c4CC[C@H]3[C@@H]1CC[C@@H]2O
